From PubChem BioAssay (NCI)
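Where inhibition never reached the appropriate level, the endpoint shown equals the highest concentration tested. Otherwise, values were interpolated linearly from a five-concentration, 48-hour dose response in 96-well plates. TGI marks complete inhibition of growth.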

Experiments:
Test in all cases: growth of human tumour cells (NCI), 48 h
[1] = test system: SNB-19 CNS
[2] = test system: IGROV1 ovarian
[3] = test system: HT29 colon
[4] = test system: OVCAR-3 ovarian
[5] = test system: HCC-2998 colon
[6] = test system: UACC-257 melanoma
[7] = test system: SK-OV-3 ovarian
[8] = test system: SK-MEL-28 melanoma
[9] = test system: A549 NSCLC
[10] = test system: NCI-H460 lung
[11] = test system: MDA-N
[12] = test system: SF-268 CNS
[13] = test system: TK-10 renal
[14] = test system: UO-31 renal
[15] = test system: HS 578T breast
[16] = test system: M14 melanoma
[17] = test system: BT-549 breast

Row | SMILES | TGI [1] | TGI [2] | TGI [3] | TGI [4] | TGI [5] | TGI [6] | TGI [7] | TGI [8] | TGI [9] | TGI [10] | TGI [11] | TGI [12] | TGI [13] | TGI [14] | TGI [15] | TGI [16] | TGI [17]
1 | Cc1nc2ccc(Cl)cc2c2c1CCN2c1ccc(F)cc1 | > 100 µM | 72.7 µM | > 100 µM | > 100 µM | > 100 µM | 49.6 µM | > 100 µM | 75.7 µM | > 100 µM | > 100 µM | > 100 µM | > 100 µM | > 100 µM | > 100 µM | > 100 µM | 51.7 µM | –
2 | N#CC(O)CCOCc1ccccc1 (stereo not drawn) | > 100 µM | > 100 µM | > 100 µM | > 100 µM | – | > 100 µM | > 100 µM | > 100 µM | > 100 µM | > 100 µM | > 100 µM | > 100 µM | > 100 µM | > 100 µM | – | > 100 µM | > 100 µM
3 | O=C(NC(CS)C(=O)O)c1c2ccccc2nc2ccccc12 (stereo not drawn) | > 100 µM | > 100 µM | > 100 µM | > 100 µM | > 100 µM | > 100 µM | > 100 µM | > 100 µM | > 100 µM | > 100 µM | > 100 µM | > 100 µM | > 100 µM | 43 µM | – | > 100 µM | 58.5 µM
4 | CC(C(=O)NCNC(=O)c1ccccc1)C(=O)Nc1ccccc1 (stereo not drawn) | > 100 µM | > 100 µM | > 100 µM | – | – | > 100 µM | > 100 µM | – | > 100 µM | > 100 µM | > 100 µM | > 100 µM | > 100 µM | > 100 µM | > 100 µM | > 100 µM | > 100 µM
5 | C/C(O)=C(/C=N/C(=S)Nc1ccccc1)C(=O)Nc1ccccc1C | > 100 µM | > 100 µM | > 100 µM | > 100 µM | > 100 µM | > 100 µM | > 100 µM | > 100 µM | > 100 µM | > 100 µM | > 100 µM | > 100 µM | > 100 µM | > 100 µM | > 100 µM | > 100 µM | –
6 | C/C(=N\O)c1ccc(OCc2cc(C(F)(F)F)cc(C(F)(F)F)c2)cc1 | > 100 µM | > 100 µM | > 100 µM | > 100 µM | 98.4 µM | > 100 µM | > 100 µM | > 100 µM | > 100 µM | 69.1 µM | > 100 µM | > 100 µM | > 100 µM | > 100 µM | > 100 µM | > 100 µM | –
7 | NC(=O)N/N=C\CC(O)(C(F)(F)Cl)C(F)(F)Cl | > 10 µM | > 10 µM | > 10 µM | > 10 µM | > 10 µM | > 10 µM | > 10 µM | > 10 µM | > 10 µM | > 10 µM | > 10 µM | > 10 µM | > 10 µM | > 10 µM | > 10 µM | > 10 µM | –
8 | CC(C)C1=Cc2ccc3c(c2C(=O)C1=O)CCCC3 | 37.5 µM | 12.1 µM | 25.1 µM | 5.33 µM | 30.9 µM | 6.57 µM | 30.5 µM | 15.8 µM | 34.4 µM | 26.6 µM | 19.3 µM | 16.6 µM | 6.55 µM | 6.74 µM | 55.9 µM | 11.1 µM | –
9 | O=C1c2cc3c(cc2CC12Cc1ccccc1C2)CCC3 | > 100 µM | > 100 µM | 50.5 µM | > 100 µM | > 100 µM | 54.4 µM | > 100 µM | > 100 µM | > 100 µM | > 100 µM | 86.8 µM | 93.7 µM | > 100 µM | > 100 µM | > 100 µM | 70.6 µM | –
10 | O=C1c2ccccc2CC12Cc1cc3c(cc1C2)CCC3 | > 100 µM | > 100 µM | 62.1 µM | > 100 µM | > 100 µM | 91.3 µM | > 100 µM | > 100 µM | > 100 µM | > 100 µM | > 100 µM | > 100 µM | > 100 µM | > 100 µM | > 100 µM | 94.1 µM | –
11 | NC(=O)c1ncn(C2C=CC(CP(=O)(O)O)C2)c1N (stereo not drawn) | > 100 µM | > 100 µM | > 100 µM | > 100 µM | > 100 µM | > 100 µM | > 100 µM | > 100 µM | > 100 µM | > 100 µM | > 100 µM | > 100 µM | > 100 µM | > 100 µM | > 100 µM | > 100 µM | –
12 | CN(C)c1ccc(N=C2N=C(Nc3ccccc3)C(=Nc3ccccc3)S2)cc1 | > 100 µM | > 100 µM | > 100 µM | > 100 µM | > 100 µM | > 100 µM | > 100 µM | > 100 µM | > 100 µM | > 100 µM | > 100 µM | > 100 µM | > 100 µM | – | > 100 µM | > 100 µM | –
13 | Oc1ccc(Br)cc1C=Nc1c(NC2CCCCC2)oc2ccc(Br)cc12 | > 100 µM | > 100 µM | 78.4 µM | 68.6 µM | > 100 µM | > 100 µM | > 100 µM | > 100 µM | > 100 µM | > 100 µM | > 100 µM | > 100 µM | > 100 µM | > 100 µM | – | – | 90.9 µM
